Paper PMC9837764 (Nature Communications, 2023)
Several values for one entry are separate records, joined by “and”; a condition that tells them apart may be missing. Equal entries are not always repeated.

How the values were obtained:
[1] = Pharmacokinetics and metabolites in rat plasma; format: in vivo, Sprague-Dawley rats (Rattus norvegicus); set-up: MB-905 in rat plasma (Fig4B source data, per animal) / MB-905 in rat plasma (Fig4A source data, per animal): unit not given here; details: for MB-905 in rat plasma (Fig4A source data, per animal): 1 mg/kg i.v.; for MB-905 in rat plasma (Fig4B source data, per animal): 30 mg/kg oral; for k el: read-out: Ke (converted)
[2] = system: IL-6; test: IL-6 in supernatant of SARS-CoV-2-infected human primary monocytes; format: cell-based; details: infected monocytes, drugs at 10 µM, 24 h
Method: Human primary monocytes were obtained after 3 h of plastic adherence of peripheral blood mononuclear cells (PBMCs). The use of primary human cell was approved by Institutional Review Board from the Oswaldo Cruz Foundation under protocol 49971421.8.0000.5248 with signed informed consent in accordance with the Hemotherapy Service of Hospital Clementino Fraga from the Federal University of Rio de Janeiro. All volunteers were de-identified. PBMCs were isolated from healthy donors by density gradient centrifugation (Ficoll-Paque, GE Healthcare). PBMCs (2.0 × 10^6 cells) were plated onto 48-well plates (NalgeNunc) in RPMI-1640 without serum for 2–4 h. Nonadherent cells were removed, and the remaining monocytes were maintained in DMEM with 5% human serum (HS; Millipore) and penicillin/streptomycin. The purity of human monocytes was above 95%, as determined by flow cytometric analysis (FACScan; Becton Dickinson) using anti-CD3 (BD Biosciences, cat # 555342, 1:40), anti-CD16 (Southern Biotech, cat # 561313, 1:20) and APC mouse IgG2a isotype (BD Biosciences, cat # 550882, 1/40) and PE mouse IgG1 isotype (BD Biosciences, 555749, 1/20).

[3] = system: SARS-CoV-2; test: Combination of RdRp inhibitors with SARS-CoV-2 nsp14 inhibitors in infected Calu-3 cells, synergy; format: cell-based; details: for Response (Fig3C source data for synergy analysis): DTG 0 nM
[4] = system: SARS-CoV-2 gamma VoC; set-up: species or system K18-hACE2 mice (Mus musculus); details: mouse, in vivo
[5] = system: Salmonella typhimurium TA 102; test: Ames test, strain TA 102
[6] = system: SARS-CoV-2 gamma VoC; set-up: species or system K18-hACE2 mice (Mus musculus); details: mouse, in vivo, 140 mg/kg/day
[7] = in vivo; details: both sexes, mouse, mice
Method: For the MTD assay (OECD 425), mice (3 animals of each sex/group) were divided into five experimental groups, and the up and down procedure was applied to which 175 mg/kg was used as the first dose. […] Mortality, morbidity, body weight, food consumption, and general and detailed clinical signs of toxicity were evaluated. At necropsy, vital (brain, heart, liver, spleen, kidneys and adrenal glands) and reproductive organs (ovaries, testicles, and epididymis) were carefully removed, weighed and stored for further analysis (if necessary).

[8] = system: Salmonella typhimurium TA 100
[9] = system: SARS-CoV-2 Gamma VoC; details: hamster, in vivo, 140 mg/kg
[10] = Pharmacokinetics in mouse plasma; format: in vivo, CD1 mice (Mus musculus); set-up: MB-905 level (Fig5A): unit not given here; details: for MB-905 level (Fig5A): individual animals; for k el: read-out: Ke (converted)
[11] = system: SARS-CoV-2 gamma VoC; set-up: species or system K18-hACE2 mice (Mus musculus); details: mouse, in vivo; remark: listed apart in the source
[12] = both sexes, Sprague-Dawley, rat, plasma, iv, rats, 1 mg/kg (i.v.)
[13] = both sexes, Sprague-Dawley, rat, plasma, po, rats, 30 mg/kg (p.o.)
[14] = infected Calu-3, compound alone at 10 uM
[15] = both sexes, CD1, mouse, plasma, iv, mice, 3 mg/kg (i.v.)
[16] = both sexes, CD1, mouse, plasma, po, mice, 30 mg/kg (p.o.)
[17] = both sexes, CD1, mouse, plasma, po, mice, 550 mg/kg (p.o.)

## c1coc(CNc2ncnc3[nH]cnc23)c1 [MB-905, N6-furfurylaminopurine]
[1]; 0.083 h
  MB-905 in rat plasma (Fig4A source data, per animal): 122.29 and 142.1 and 107.27 and 127.39 and 93.94
[1]; 0.25 h
  MB-905 in rat plasma (Fig4A source data, per animal): 82.46 and 129.29 and 128.28 and 120.23 and 112.61
  MB-905 in rat plasma (Fig4B source data, per animal): 397.32 and 362.53 and 415.61 and 353.44
[1]; 0.5 h
  MB-905 in rat plasma (Fig4A source data, per animal): 65.31 and 60.03 and 69.73 and 52.81 and 69.66
[1]; 1 h
  MB-905 in rat plasma (Fig4A source data, per animal): 28.25 and 16.64 and 9.33 and 14.09 and 7.19 and 13.17
  MB-905 in rat plasma (Fig4B source data, per animal): 263.22 and 231.26 and 292.83 and 229.84
[1]; 2 h
  MB-905 in rat plasma (Fig4A source data, per animal): 1.74 and 1.82 and 1.9 and 1.56 and 1.91
  MB-905 in rat plasma (Fig4B source data, per animal): 88.19 and 121.59 and 183.67 and 211.01 and 229.72
[1]; 3 h
  MB-905 in rat plasma (Fig4A source data, per animal): 0.61 and 1.31 and 1.15 (3×) and 1.21
  MB-905 in rat plasma (Fig4B source data, per animal): 243.45 and 113.36 and 86.5 and 220.24 and 141.51
[1]; 5 h
  MB-905 in rat plasma (Fig4B source data, per animal): 154.28 and 65.58 and 86.37 and 126.88 and 27.06
[1]; 8 h
  MB-905 in rat plasma (Fig4B source data, per animal): 116.98 and 84.1 and 84.26 and 4.12 and 35.08
[1]; 12 h
  MB-905 in rat plasma (Fig4B source data, per animal): 1.46 and 1.1 and 5.1 and 3.6 and 2.01
[1]; both sexes, Sprague-Dawley, rat, plasma, iv, 1 mg/kg, rats, 1 mg/kg (i.v.), read-out: F
  bioavailability: 100%
[1]; [12]
  AUC: 77.1 ng·h/mL
  AUC(0-t): 77.1 ng·h/mL
  Cmax: 124 ng/mL
  Tmax: 4.98 min
  clearance: 214 mL/min/kg
  half-life: 33.6 min
  k el: 0.000342 s⁻¹
[1]; both sexes, Sprague-Dawley, rat, plasma, iv, rats, 1 mg/kg (i.v.), read-out: Vz
  Vd: 10.4 L/kg
[1]; both sexes, Sprague-Dawley, rat, plasma, po, 30 mg/kg, rats, 30 mg/kg (p.o.), read-out: F
  bioavailability: 64.7%
[1]; both sexes, Sprague-Dawley, rat, plasma, po, 30 mg/kg, rats, read-out: Oral bioavailability
  bioavailability: > 50%
[1]; [13]
  AUC: 1500 ng·h/mL
  AUC(0-t): 1500 ng·h/mL
  Cmax: 370 ng/mL
  Tmax: 15 min
  half-life: 229 min
  k el: 5e-05 s⁻¹
[1]; rats, 30 mg/kg (p.o.)
  CL: 330.53 mL/min/kg
  Vz: 109.18 L/kg
[2]
  IL-6 levels in the culture supernatant (Fig1E source data, per donor): 1.3 and 0.5 and 1.0 and 2.4 and 0.8 and 1.4 and 2.3
[3]; MB-905 10 nM
  Response (Fig3C source data for synergy analysis): 8
[3]; MB-905 100 nM
  Response (Fig3C source data for synergy analysis): 17
[3]; MB-905 1000 nM
  Response (Fig3C source data for synergy analysis): 44
[3]; MB-905 10000 nM
  Response (Fig3C source data for synergy analysis): 89
[3]; Severe acute respiratory syndrome coronavirus 2, Calu-3, read-out: EC50 mean
  EC50: 0.3 µM
[3]; Severe acute respiratory syndrome coronavirus 2, Calu-3, read-out: EC90 mean
  EC90: 8 µM
[3]; [14]
  Virus productive titers (Fig3A source data, replicates): 60000 and 46000 and 56000
  Virus productive titers (Fig3B source data, replicates): 60000 and 46000 and 52000
[4]
  Fig6G lung histological score: 1 and 2
[5]; 8 µg/mL
  Mutagenicity TA 102 +S9: -
  Mutagenicity TA 102 -S9: -
[5]; 40 µg/mL
  Mutagenicity TA 102 +S9: -
  Mutagenicity TA 102 -S9: -
[5]; 200 µg/mL
  Mutagenicity TA 102 +S9: -
  Mutagenicity TA 102 -S9: -
[5]; 1,000 µg/mL
  Mutagenicity TA 102 +S9: -
  Mutagenicity TA 102 -S9: -
[5]; 5,000 µg/mL
  Mutagenicity TA 102 +S9: -
  Mutagenicity TA 102 -S9: -
[6]
  Infectious titers in lungs: decreased significantly
  Virus RNA levels from lung extracts: did not alter
[7]
  NOAEL: 500 mg/kg
[7]; oral, read-out: Recommended dose for repeated exposure (MTD assay)
  MTD: 550 mg/kg
[8]
  Cytotoxicity and mutagenicity, preliminary assay TA 100: not observed
[9]
  Tolerability (body weight): tolerated
[10]; 140 mg/kg, 0.25 h
  MB-905 level (Fig5A): 544 and 555 and 638
[10]; 140 mg/kg, 1 h
  MB-905 level (Fig5A): 356 and 299 and 551
[10]; 140 mg/kg, 3 h
  MB-905 level (Fig5A): 447 and 177 and 154
[10]; 140 mg/kg, 8 h
  MB-905 level (Fig5A): 105 and 316 and 50
[10]; 140 mg/kg, 12 h
  MB-905 level (Fig5A): 0
[10]; 500 mg/kg, 0.25 h
  MB-905 level (Fig5A): 1228 and 1306 and 1348
[10]; 500 mg/kg, 1 h
  MB-905 level (Fig5A): 1348 and 946 and 1312
[10]; 500 mg/kg, 3 h
  MB-905 level (Fig5A): 894 and 544 and 652
[10]; 500 mg/kg, 8 h
  MB-905 level (Fig5A): 833 and 340 and 437
[10]; 500 mg/kg, 12 h
  MB-905 level (Fig5A): 103 and 13 and 0
[10]; [15]
  AUC: 66.4 ng·h/mL
  AUC(0-t): 55.5 ng·h/mL
  Cmax: 155 ng/mL
  Tmax: 4.98 min
  clearance: 918 mL/min/kg
  half-life: 13.2 min
  k el: 0.000858 s⁻¹
[10]; both sexes, CD1, mouse, plasma, iv, mice, 3 mg/kg (i.v.), read-out: Vz
  Vd: 19 L/kg
[10]; both sexes, CD1, mouse, plasma, po, 30 mg/kg, mice, 30 mg/kg (p.o.), read-out: F
  bioavailability: 53.5%
[10]; both sexes, CD1, mouse, plasma, po, 30 mg/kg, mice, read-out: Oral bioavailability
  bioavailability: > 50%
[10]; both sexes, CD1, mouse, plasma, po, 550 mg/kg, mice, 550 mg/kg (p.o.), read-out: F
  bioavailability: 36.1%
[10]; [16]
  AUC: 356 ng·h/mL
  AUC(0-t): 356 ng·h/mL
  Cmax: 570 ng/mL
  Tmax: 4.98 min
  half-life: 66.6 min
  k el: 0.000172 s⁻¹
[10]; [17]
  AUC: 4390 ng·h/mL
  AUC(0-t): 4390 ng·h/mL
  Cmax: 1050 ng/mL
  Tmax: 30 min
  half-life: 163 min
  k el: 6.94e-05 s⁻¹
[10]; mice, 30 mg/kg (p.o.)
  CL: 1060.15 mL/min/kg
  Vz: 102.21 L/kg
[10]; mice, 550 mg/kg (p.o.)
  CL: 1843.18 mL/min/kg
  Vz: 434.2 L/kg
[11]
  LDH levels in bronchoalveolar lavage (BAL): decreased
